These results are taken from article PMC8156934, “Photophysical Study and Biological Applications of Synthetic Chalcone-Based Fluorescent Dyes” (Molecules, 2021).

By IC50 is commonly meant the concentration that gives 50% inhibition. The term MBC denotes the smallest concentration meeting the test's criterion for killing. The term MIC denotes the lowest concentration that inhibits growth of the organism.

Converted amounts (≈) assume the structure as drawn. A value given as a limit tells only on which side of the number the result lay.

For series [1] the following is noted: 0.1 M NaOH, used as standard; no reference given; cited from earlier work.
The next series has as its system HepG2. Briefly: Cell viability MTT assay, cancer cells. The class given is cell-based. The following applies: Homo sapiens; HepG2, 24 h, MTT; read-out: IC50. The procedure:
(§1) For fluorescence imaging of living cells, human embryonic kidney 293 (HEK-293, ATCC) and human hepatoma cancer cell (HepG2, ATCC) were cultured in Dulbecco′s Modified Eagle′s Medium (DMEM, HyClone) supplemented with 10% Fetal Bovine Serum (FBS, Gibco, Carlsbad, CA, USA) and 1% Penicillin/Streptomycin Solution 100X (Corning, Corning, NY, USA). All cells were cultured in a humidified incubator at 37 °C with 5% CO2. HEK-293 and HepG2 cells, approximately 1 × 10^4 cells, were seeded on 8-well chambered cover glasses (LabTek, Nunc, Carlsbad, CA, USA) and incubated in complete medium for 24 h. After that, the cells were treated with 5 μM stock solutions of 3a–f in DMSO/cell culture medium containing 10% FBS (0.25% DMSO), for 0, 1, 3, and 6 h. Then, the cells were washed twice with 0.01 M PBS before being visualized under a Laser-Scanning Confocal Microscope (Nikon A1Rsi) with a 60× oil immersion objective lens and living cell workstation with the excitation channel at 488 nm.
(§2) The cells were seeded on a 96-well plate, approximately 7 × 10^3 cells per well, and incubated in complete medium for 24 h. After that, the cells were treated with 0, 1, 5, 10, 20, and 50 μM of chalcones 3a–f, and culturing continued for 24 h. After incubation, the cells were washed three times with 10 mM PBS and treated with […] of methylthiazolyldiphenyl-tetrazolium bromide (MTT reagent, 0.5 mg mL^−1, Sigma-Aldrich, St. Louis, MO, USA) for 2–3 h. After medium removal, DMSO was added to dissolve the formazan product, and cell viability was determined by UV–Vis absorption of the resulting formazan at a wavelength of 560 nm in a microplate reader (BMG Labtech/SPECTROstar Nano, Ortenberg, Germany).
(In general: Tetrazolium dyes change colour on reduction, which living cells bring about.)

Series [2] in a line: pH effect on fluorescence emission. The class given is physicochemical. The note with it: pH range from 2 to 12, 2 µM, 3% Tween 80. The procedure: Chalcones 3a–f (2 µM) were dissolved in commercial pH 1–12 buffers purchased from Merck (St. Louis, MO, USA) (glycine/NaCl/HCl for pH 1, citric acid/NaOH/HCl for pH 2–6, Na2HPO4/KH2PO4 for pH 7, boric acid/ KCl/NaOH for pH 8–11, Na3PO4/NaOH for pH 12) in the presence of Tween 80 (3% w/w). The actual pH values of the final buffer solutions were measured by a pH meter. The resulting solutions were examined by a Spectrofluorometer (PerkinElmer LS55) at the maximum absorbance wavelength of each compound.

In the next series the test system is E. coli 780. Briefly: Antibacterial activity test (MIC, MBC, growth curve). The class given is cell-based, Escherichia coli. The following applies: for MBC / MIC: Escherichia coli, E. coli 780, mean ± SD of three independent experiments; for MBC: read-out: MBC; for MIC: read-out: MIC. The method, then:
(§3) All bacteria strains were obtained from the Thailand Institute of Scientific and Technological Research (TISTR). The antibacterial activity of chalcones 3a–f was determined by the minimal inhibitory concentration (MIC) and the minimal bactericidal concentration (MBC) against the Gram-positive (S. aureus 1466, TISTR 1466) and Gram-negative (E.coli 780, TISTR 780) bacteria. The stocks of chalcones 3a–f (0.60 mg/mL) were serially diluted in Muller–Hinton (MH) broth to obtain concentrations in the range of 250–1000 µM. The solutions of chalcones 3a–f (100 µL) at different concentrations were added in the culture of the tested bacteria (100 µL) at a concentration of 1 × 10^6 colony-forming units/mL (CFU/mL) in MH broth at 37 °C with shaking at 80 rpm. The bacterial numbers were determined by measuring the optical density at 600 nm by a UV–Vis spectrometer. […] To determine the MBC values, the bacterial cultures (10 µL) containing the solutions of chalcones 3a–f at MIC and three higher concentrations were dropped on MH agar plates.

Another series relates to S. aureus 1466. The description is as above. The class given is cell-based, Staphylococcus aureus. The note with it: for MBC / MIC: Staphylococcus aureus, S. aureus 1466, mean ± SD of three independent experiments; for MBC: read-out: MBC; for MIC: read-out: MIC. The procedure: as §3
Series [3] in a line: Photophysical properties (UV–Vis absorption and fluorescence spectra). The class given is physicochemical. The following applies: for λabs absorption maximum wavelength / ∆λ stokes shifts (λem − λabs) / λem emission maximum wavelength / Φf fluorescence quantum yields: 2 µM; for λem emission maximum wavelength: excited at the maximum absorption wavelength; for Φf fluorescence quantum yields: n = 3, relative to fluorescein in 0.1 M NaOH. The procedure:
All UV–Vis absorption and fluorescence spectra were recorded on a UV–Vis Spectrophotometer (Agilent Technologies Cary 300, Santa Clara, CA, USA) and a Spectrofluorometer (PerkinElmer LS55, Waltham, MA, USA), respectively. In both experiments, the stock solutions of chalcones 3a–f were prepared as 0.5 mM in DMSO. The appropriate amount of the stock solution was added to DMSO, MeOH, and 0.01 M PBS buffer (pH 7.4) with 3% Tween 80 (3 mL) to obtain the final concentration of 2 µM in the testing solutions. For fluorescence experiments, the emission spectra were recorded at the maximum absorbance wavelength of each compound. The fluorescent quantum yields (Φf) were calculated relative to fluorescein in 0.1 M NaOH as a standard (Φf = 0.95).

A short description of series [4]: Photo-stability test (photobleaching under 250 W blue light). The class given is physicochemical. The following applies: DMSO, 250 W blue light (380–500 nm), after 30 min irradiation. The method, then:
Chalcones 3a–f were dissolved in DMSO at the final concentration of 1 × 10^−6 M for measuring absorption and emission intensity. Then, 3a–f were irradiated at 250 W (blue-lamp) at a distance of 75 cm. The UV–Visible absorption and fluorescence spectra of the solutions were measured at different time points including 0, 1, 5, 10, 15, 20, and 30 min. Photo-stability was reported in terms of photobleaching absorption and emission (%) calculated from the change of absorption and emission intensity at the absorption and emission maxima before and after irradiation.

Another series has as its system HEK-293. Description: Cell viability MTT assay, normal cells. The class given is cell-based. The following applies: Homo sapiens, HEK293; HEK-293, 24 h, MTT; read-out: IC50. The method, then:
as §1, §2

Consider `O=C1OC2(c3ccc(O)cc3Oc3cc(O)ccc32)c2ccccc21` [fluorescein], for which the “Φf fluorescent quantum yield of the standard” value in series [1] is given as 0.95.
Turning to `CN(C)c1ccc(/C=C/C(=O)c2ccc(N(C)C)cc2)cc1` [3d], in the series on HepG2, the IC50 turned out to be 56 µM. For the same compound, the fluorescence emission entry in series [2] is recorded as “Higher emission peaks”. The “bacterial growth (OD600 growth curve)” value in the series on E. coli 780 (E. coli 780, increasing concentration, 24 h) is reported as “significantly inhibited”. In the series with E. coli 780, the MBC came out at 375 ± 0.01 µM (≈ 110 µg/mL) and the MIC amounted to 250 ± 0.01 µM (≈ 73.6 µg/mL). Moreover, the “bacterial growth (OD600 growth curve)” value with S. aureus 1466 (S. aureus 1466, increasing concentration, 24 h) is on record as “significantly inhibited”. In the series with S. aureus 1466, the MBC worked out at 1000 ± 0.01 µM (≈ 294 µg/mL) and the minimum inhibitory concentration (MIC) was determined as 250 ± 0.01 µM (≈ 73.6 µg/mL). In addition, in series [3] (DMSO), the ε molar absorptivity stood at 46000 M⁻¹ cm⁻¹, the “λabs absorption maximum wavelength” value stood at 422 nm, the “∆λ stokes shifts (λem − λabs)” value stood at 94 nm and the “λem emission maximum wavelength” value is reported as 516 nm. Also, the “Φf fluorescence quantum yields” value in series [3] (DMSO) came to 0.10 ± 0.02. In addition, in series [3] (MeOH), the ε molar absorptivity is 37000 M⁻¹ cm⁻¹, the “λabs absorption maximum wavelength” value came out at 423 nm, the “∆λ stokes shifts (λem − λabs)” value is recorded as 132 nm and the “λem emission maximum wavelength” value stood at 555 nm. Also, the “Φf fluorescence quantum yields” value in series [3] (MeOH) is on record as 0.024 ± 0.015. Further, in series [3] (PBS (3%w/w tween 80)), the ε molar absorptivity worked out at 44000 M⁻¹ cm⁻¹, the “λabs absorption maximum wavelength” value is 422 nm, the “∆λ stokes shifts (λem − λabs)” value stood at 120 nm and the “λem emission maximum wavelength” value is 542 nm. Also, the “Φf fluorescence quantum yields” value in series [3] (PBS (3%w/w tween 80)) was 0.17 ± 0.03. In series [4], the “% photobleaching of absorbance” value was determined as 51% and the “% photobleaching of fluorescence” value was determined as 30%. The IC50 with HEK-293 is above 100 µM.
Turning to `Cc1ccc(C(=O)/C=C/c2ccc(N(C)C)cc2)cc1` [3e], in the series on HepG2, the IC50 turned out to be 54 µM. Also, the fluorescence emission result in series [2] was “Higher emission peaks”. Besides, in the series on E. coli 780, the MBC was determined as 1000 ± 0.02 µM (≈ 265 µg/mL) and the MIC was 375 ± 0.01 µM (≈ 99.5 µg/mL). In the series with S. aureus 1466, the MBC was determined as 1000 ± 0.02 µM (≈ 265 µg/mL) and the minimal inhibitory concentration (MIC) stood at 375 ± 0.03 µM (≈ 99.5 µg/mL). In series [3] (DMSO), the ε molar absorptivity amounted to 32000 M⁻¹ cm⁻¹, the “λabs absorption maximum wavelength” value is recorded as 420 nm, the “∆λ stokes shifts (λem − λabs)” value is 119 nm and the “λem emission maximum wavelength” value is listed as 539 nm. Also, the “Φf fluorescence quantum yields” value in series [3] (DMSO) came to 0.50 ± 0.02. In series [3] (MeOH), the ε molar absorptivity stood at 32000 M⁻¹ cm⁻¹, the “λabs absorption maximum wavelength” value is 417 nm, the “∆λ stokes shifts (λem − λabs)” value was found to be 130 nm and the “λem emission maximum wavelength” value stood at 547 nm. The “Φf fluorescence quantum yields” value in series [3] (MeOH) came out at 0.012 ± 0.007. In series [3] (PBS (3%w/w tween 80)), the ε molar absorptivity is 28000 M⁻¹ cm⁻¹, the “λabs absorption maximum wavelength” value was 420 nm, the “∆λ stokes shifts (λem − λabs)” value is listed as 101 nm and the “λem emission maximum wavelength” value was 521 nm. The “Φf fluorescence quantum yields” value in series [3] (PBS (3%w/w tween 80)) turned out to be 0.18 ± 0.03. In series [4], the “% photobleaching of absorbance” value is recorded as 46% and the “% photobleaching of fluorescence” value was found to be 21%. Also, in the series with HEK-293, the concentration for half-maximal inhibition (IC50) came out at 96 µM.
